Source: patent US9771381B2, “Derivatives of 1-amino-2-cyclobutylethylboronic acid” (Millennium Pharmaceuticals, Inc., priority 2008, dated 2017)

Molecular target: T1, human 20S proteasome (Homo sapiens, UniProt P28074)
T1 construct: purchased Boston Biochem
Assay: 20S Proteasome Assay
Type: biochemical
Settings: Ac-WLA-AMC substrate 15 μM, human PA28 activator 12 nM, human 20S proteasome 0.25 nM, 37° C., pH7.4

SMILES: CC1(C)[C@@H]2C[C@H]3OB([C@H](CC4CCC4)NC(=O)[C@H](Cc4ccccc4)NS(=O)(=O)c4cccnc4)O[C@@]3(C)[C@H]1C2 [Compound 15, (2S)-N-{(1R)-2-cyclobutyl-1-[(3aS,4S,6S,7aR)-3a,5,5-trimethylhexahydro-4,6-methano-1,3,2-benzodioxaborol-2-yl]ethyl}-3-phenyl-2-[(pyridin-3-ylsulfonyl)amino]propanamide]
- IC50: 50 to 150 nM

SMILES: O=C(c1cccc(S(=O)(=O)N[C@@H](Cc2ccccc2)C(=O)N[C@@H](CC2CCC2)B(O)O)c1)c1ccccn1 [Compound 29, ((1R)-2-cyclobutyl-1-{[(2S)-3-phenyl-2-({[3-(pyridin-2-ylcarbonyl)phenyl]sulfonyl}amino)propanoyl]amino}eth-yl)boronic acid]
- IC50: < 50 nM

SMILES: CN1CCOc2ccc(C(=O)N[C@@H](Cc3ccccc3)C(=O)N[C@@H](CC3CCC3)B(O)O)cc21 [Compound 37, {(1R)-2-cyclobutyl-1-[((2S)-2-{[(4-methyl-3,4-dihydro-2H-1,4-benzoxazin-6-yl)carbonyl]amino}-3-phenylpropanoyl)amino]ethyl}boronic acid]
- IC50: < 50 nM

SMILES: CC(=O)N[C@@H](CCc1ccccc1)C(=O)N[C@@H](Cc1ccccc1)C(=O)N[C@@H](CC1CCC1)B(O)O [Compound 22, {(1R)-1-[((2S)-2-{[(2S)-2-(acetylamino)-4-phenylbutanoyl]amino}-3-phenylpropanoyl)amino]-2-cyclobutylethyl}boronic acid]
- IC50: < 50 nM

SMILES: CC1(C)[C@@H]2C[C@H]3OB([C@H](CC4CCC4)NC(=O)[C@H](Cc4ccccc4)NS(=O)(=O)c4ccc(Oc5ccccc5)nc4)O[C@@]3(C)[C@H]1C2 [Compound 24, (2S)-N-{(1R)-2-cyclobutyl-1-[(3aS,4S,6S,7aR)-3a,5,5-trimethylhexahydro-4,6-methano-1,3,2-benzodioxaborol-2-yl]ethyl}-2-{[(6-phenoxypyridin-3-yl)sulfonyl]amino}-3-phenylpropanamide]
- IC50: < 50 nM

SMILES: O=C(N[C@@H](Cc1ccccc1)C(=O)N[C@@H](CC1CCC1)B(O)O)c1ccc(O)c(CN2CCOCC2)c1 [Compound 3, {(1R)-2-cyclobutyl-1-[((2S)-2-{[4-hydroxy-3-(morpholin-4-ylmethyl)benzoyl]amino}-3-phenylpropanoyl)amino]ethyl}boronic acid]
- IC50: < 50 nM

SMILES: CC1(C)[C@@H]2C[C@H]3OB([C@H](CC4CCC4)NC(=O)[C@H](Cc4ccccc4)NC(=O)c4cccnc4Nc4cccc(C(F)(F)F)c4)O[C@@]3(C)[C@H]1C2 [Compound 19, N-[(1S)-1-benzyl-2-({(1R)-2-cyclobutyl-1-[(3aS,4S,6S,7aR)-3a,5,5-trimethylhexahydro-4,6-methano-1,3,2-benzodioxaborol-2-yl]ethyl}amino)-2-oxoethyl]-2-{[3-(trifluoromethyl)phenyl]amino}nicotinamide]
- IC50: < 50 nM

SMILES: O=C(N[C@@H](CC1CCC1)B(O)O)[C@H](Cc1ccccc1)NS(=O)(=O)c1ccc(Oc2ccccc2)nc1 [Compound 11, {(1R)-2-cyclobutyl-1-[((2S)-2-{[(6-phenoxypyridin-3-yl)sulfonyl]amino}-3-phenylpropanoyl)amino]ethyl}boronic acid]
- IC50: < 50 nM

SMILES: CC1(C)[C@@H]2C[C@H]3OB([C@H](CC4CCC4)NC(=O)[C@H](Cc4ccccc4)NC(=O)c4cc(Cl)ccc4Cl)O[C@@]3(C)[C@H]1C2 [Compound 5, N-[(1S)-1-benzyl-2-({(1R)-2-cyclobutyl-1-[(3aS,4S,6S,7aR)-3a,5,5-trimethylhexahydro-4,6-methano-1,3,2-benzodioxaborol-2-yl]ethyl}amino)-2-oxoethyl]-2,5-dichlorobenzamide]
- IC50: < 50 nM

SMILES: CC(=O)N[C@@H](CCc1ccccc1)C(=O)N[C@@H](Cc1ccccc1)C(=O)N[C@@H](CC1CCC1)B1O[C@@H]2C[C@@H]3C[C@@H](C3(C)C)[C@]2(C)O1 [Compound 16, (2S)-2-(acetylamino)-N-[(1S)-1-benzyl-2-({(1R)-2-cyclobutyl-1-[(3aS,4S,6S,7aR)-3a,5,5-trimethylhexahydro-4,6-methano-1,3,2-benzodioxaborol-2-yl]ethyl}amino)-2-oxoethyl]-4-phenylbutanamide]
- IC50: < 50 nM

SMILES: CN1C(=O)Cc2cc(S(=O)(=O)N[C@@H](Cc3ccccc3)C(=O)N[C@@H](CC3CCC3)B(O)O)ccc21 [Compound 40, {(1R)-2-cyclobutyl-1-[((2S)-2-{[(1-methyl-2-oxo-2,3-dihydro-1H-indol-5-yl)sulfonyl]amino}-3-phenylpropanoyl)amino]ethyl}boronic acid]
- IC50: < 50 nM

SMILES: CC1(C)[C@@H]2C[C@H]3OB([C@H](CC4CCC4)NC(=O)[C@H](Cc4ccccc4)NC(=O)c4cccc(Oc5ccccc5)c4)O[C@@]3(C)[C@H]1C2 [Compound 13]
- IC50: < 50 nM

SMILES: C[C@H](O)[C@H](NS(=O)(=O)c1ccc(Oc2ccccc2)nc1)C(=O)N[C@@H](CC1CCC1)B(O)O [Compound 42, {(1R)-2-cyclobutyl-1-[((2S)-3-hydroxy-2-{[(6-phenoxypyridin-3-yl)sulfonyl]amino}butanoyl)amino]ethyl}boronic acid]
- IC50: 50 to 150 nM

SMILES: O=C(N[C@@H](CC1CCC1)B(O)O)[C@H](Cc1ccccc1)NS(=O)(=O)c1cccc(Oc2ccc(C(F)(F)F)cn2)c1 [Compound 34, {(1R)-2-cyclobutyl-1-[((2S)-3-phenyl-2-{[(3-{[5-(trifluoromethyl)pyridin-2-yl]oxy}phenyl)sulfonyl]amino}pro-panoyl)amino]ethyl}boronic acid]
- IC50: < 50 nM

SMILES: CC1(C)[C@@H]2C[C@H]3OB([C@H](CC4CCC4)NC(=O)[C@H](Cc4ccccc4)NC(=O)c4ccc(O)c(CN5CCOCC5)c4)O[C@@]3(C)[C@H]1C2 [Compound 10, N-[(1S)-1-benzyl-2-({(1R)-2-cyclobutyl-1-[(3aS,4S,6S,7aR)-3a,5,5-trimethylhexahydro-4,6-methano-1,3,2-benzodioxaborol-2-yl]ethyl}amino)-2-oxoethyl]-4-hydroxy-3-(morpholin-4-ylmethyl)benzamide]
- IC50: 50 to 150 nM

SMILES: O=C(N[C@@H](CC1CCC1)B(O)O)[C@H](Cc1ccccc1)NS(=O)(=O)c1cc(F)ccc1F [Compound 38, {(1R)-2-cyclobutyl-1-[((2S)-2-{[(2,5-difluorophenyl)sulfonyl]amino}-3-phenylpropanoyl)amino]ethyl}boronic acid]
- IC50: < 50 nM

SMILES: CC1(C)[C@@H]2C[C@H]3OB([C@H](CC4CCC4)NC(=O)[C@H](Cc4ccccc4)NC(=O)c4ccc5[nH]c(-c6ccccc6)nc5c4)O[C@@]3(C)[C@H]1C2 [Compound 14]
- IC50: < 50 nM

SMILES: CN1CCOc2cc(S(=O)(=O)N[C@@H](Cc3ccccc3)C(=O)N[C@@H](CC3CCC3)B3O[C@@H]4C[C@@H]5C[C@@H](C5(C)C)[C@]4(C)O3)ccc21 [Compound 8, (2S)-N-{(1R)-2-cyclobutyl-1-[(3aS,4S,6S,7aR)-3a,5,5-trimethylhexahydro-4,6-methano-1,3,2-benzodioxaborol-2-yl]ethyl}-2-{[(4-methyl-3,4-dihydro-2H-1,4-benzoxazin-7-yl)sulfonyl]amino}-3-phenylpropanamide]
- IC50: < 50 nM

SMILES: CC1(C)[C@@H]2C[C@H]3OB([C@H](CC4CCC4)NC(=O)[C@H](Cc4ccccc4)NC(=O)[C@H](CCc4ccccc4)NS(=O)(=O)Cc4ccccc4)O[C@@]3(C)[C@H]1C2 [Compound 21, (2S)-N-[(1S)-1-benzyl-2-({(1R)-2-cyclobutyl-1-[(3aS,4S,6S,7aR)-3a,5,5-trimethylhexahydro-4,6-methano-1,3,2-benzodioxaborol-2-yl]ethyl}amino)-2-oxoethyl]-2-[(benzylsulfonyl)amino]-4-phenylbutanamide]
- IC50: < 50 nM

SMILES: CC1(C)[C@@H]2C[C@H]3OB([C@H](CC4CCC4)NC(=O)[C@H](Cc4ccccc4)NS(=O)(=O)c4ccc5ccccc5c4)O[C@@]3(C)[C@H]1C2 [Compound 12, (2S)-N-{(1R)-2-cyclobutyl-1-[(3aS,4S,6S,7aR)-3a,5,5-trimethylhexahydro-4,6-methano-1,3,2-benzodioxaborol-2-yl]ethyl}-2-[(2-naphthylsulfonyl)amino]-3-phenylpropanamide]
- IC50: < 50 nM

SMILES: O=C(N[C@@H](CC1CCC1)B(O)O)[C@H](Cc1ccccc1)NS(=O)(=O)c1ccc(N2CCOCC2)nc1 [Compound 31, {(1R)-2-cyclobutyl-1-[((2S)-2-{[(6-morpholin-4-ylpyridin-3-yl)sulfonyl]amino}-3-phenylpropanoyl)amino]ethyl}boronic acid]
- IC50: < 50 nM

SMILES: Cn1ccc2c(S(=O)(=O)N[C@@H](Cc3ccccc3)C(=O)N[C@@H](CC3CCC3)B(O)O)cccc21 [Compound 30, {(1R)-2-cyclobutyl-1-[((2S)-2-{[(1-methyl-1H-indol-4-yl)sulfonyl]amino}-3-phenylpropanoyl)amino]ethyl}boronic acid]
- IC50: < 50 nM

SMILES: O=C1COc2cc(S(=O)(=O)N[C@@H](Cc3ccccc3)C(=O)N[C@@H](CC3CCC3)B(O)O)c(Cl)cc2N1 [Compound 32, {(1R)-1-[((2S)-2-{[(6-chloro-3-oxo-3,4-dihydro-2H-1,4-benzoxazin-7-yl)sulfonyl]amino}-3-phenylpropanoyl)amino]-2-cyclobutylethyl}boronic acid]
- IC50: < 50 nM

SMILES: Cc1nc(-c2cccc(S(=O)(=O)N[C@@H](Cc3ccccc3)C(=O)N[C@@H](CC3CCC3)B(O)O)c2)cs1 [Compound 44, ((1R)-2-cyclobutyl-1-{[(2S)-2-({[3-(2-methyl-1,3-thiazol-4-yl)phenyl]sulfonyl}amino)-3-phenylpropanoyl]amino}ethyl)boronic acid]
- IC50: < 50 nM

SMILES: O=C(N[C@@H](Cc1ccccc1)C(=O)N[C@@H](CC1CCC1)B(O)O)c1ccc2nc(-c3ccccc3)[nH]c2c1 [Compound 18, {(1R)-2-cyclobutyl-1-[((2S)-3-phenyl-2-{[(2-phenyl-1H-benzimidazol-6-yl)carbonyl]amino}propanoyl)amino]ethyl}boronic acid]
- IC50: < 50 nM

SMILES: C[C@H](O)[C@H](NS(=O)(=O)c1ccc2c(c1)N(C)CCO2)C(=O)N[C@@H](CC1CCC1)B(O)O [Compound 46, {(1R)-2-cyclobutyl-1-[((2S)-3-hydroxy-2-{[(4-methyl-3,4-dihydro-2H-1,4-benzoxazin-6-yl)sulfonyl]amino}butanoyl)amino]ethyl}boronic acid]
- IC50: 50 to 150 nM
